Experimental data as given in patent US11026876B2, “Composition for improving skin condition comprising chemokines” (TEGO SCIENCE INC., priority 2016, dated 2021).

How the values were obtained:
Assay type in all cases: cell-based
keratinocytes = experiment: Evaluation of chemotaxis of keratinocytes (Transwell insert migration); conditions: six hours, FIG. 1; for migration of keratinocytes compared to the negative control: 100 or 500 ng/ml chemokine in lower chamber, vs group not treated with a chemokine; for number of migrated keratinocytes relative to SDF-1α: 100 or 500 ng/ml chemokine, vs SDF-1α positive control
Procedure: The keratinocytes isolated from normal skin tissue were cocultured with 3T3 feeder cells in a DMEM/F12 medium (Invitrogen™, Thermo Fisher Scientific Inc., United States) containing 10% fetal bovine serum (FBS) in a humid environment of 37° C. and 10% CO2. When the cultured cells grew by 70 to 80%, the 3T3 feeder cells were removed and only the keratinocytes were isolated using trypsin-EDTA.
To evaluate chemotaxis of keratinocytes in response to BLC (CXCL13) or TECK (CCL25), cells were cultured using a Transwell® insert (Falcon®, Corning Incorporated, United States) with an opening size of 8 μm, and the number of cells migrated passing through micropores in the insert toward the chemokine were counted. Specifically, the lower chamber of the insert was treated with a chemokine (100 or 500 ng/ml BLC (CXCL13) or 100 or 500 ng/ml TECK (CCL25)), and then cells were placed in wells of the insert in a ratio of 1×10^4 cells per well. After cell incubation in a humid environment of 37° C. and 10% CO2 for six hours, the insert membrane was stained with hematoxylin, and then the number of migrated cells were counted.

[1] = system: proliferation marker Ki-67; experiment: Expression of proliferation marker Ki-67 in three-dimensional skin culture model (immunofluorescence); conditions: 100 ng/ml chemokine, 48 hours, Neoderm®-ED, FIGS. 3 and 5; for expression of proliferation marker Ki-67 compared to SDF-1α: vs SDF-1α; for expression of proliferation marker Ki-67 compared to the negative control: vs untreated group
Procedure: (§1) To evaluate the effects of skin regeneration and skin elasticity improvement, a Neoderm®-ED was treated with a 100 ng/ml chemokine (BLC (CXCL13) or TECK (CCL25)) and incubated in a humid environment of 37° C. and 10% CO2 for 48 hours. Then, the Neoderm®-ED was reacted with primary antibodies that bind to markers (i.e., proliferation marker Ki-67 and collagen IV) used to confirm the ability to induce skin regeneration and skin elasticity and then with secondary antibodies labeled with a fluorescent substance. Cell nuclei were stained with 4′,6-diamidino-2-phenylindole (DAPI).

collagen IV = experiment: Expression of collagen IV in three-dimensional skin culture model (immunofluorescence); conditions: 100 ng/ml chemokine, 48 hours, Neoderm®-ED, FIG. 4; for expression of collagen IV compared to SDF-1α: vs SDF-1α; for expression of collagen IV compared to the negative control: vs untreated group
Procedure: as §1

[2] = system: wound on Neoderm®-ED three-dimensional skin culture model; experiment: Wound-healing effect (re-epithelialization) in three-dimensional skin culture model; conditions: 500 ng/ml chemokine, five days, FIG. 2; for length of re-epithelialization compared to the negative control: 4-mm biopsy punch wound, vs untreated group; for length of re-epithelialization relative to SDF-1α: vs SDF-1α
Procedure: A Neoderm®-ED (TEGO Science, Korea) consisting of the dermis including collagen and fibroblasts and the epidermis including keratinocytes was prepared. A wound was induced on the Neoderm®-ED using a 4-mm biopsy punch, and the wound was treated with a 500 ng/ml chemokine (BLC (CXCL13) or TECK (CCL25)) and incubated in a humid environment of 37° C. and 10% CO2 for five days. The cultured Neoderm®-ED tissue was separated from insert wells and stained with hematoxylin and eosin (H&E staining). The stained tissue was placed on a glass slide and photographed under a microscope. The obtained images were analyzed using Image-Pro™ image analysis software (Media Cybernetics, Inc., United States) to measure a length of re-epithelialization of the wound.

## B lymphocyte chemoattractant [BLC (CXCL13)]
keratinocytes
  migration of keratinocytes compared to the negative control: increased
  number of migrated keratinocytes relative to SDF-1α: at least five times more
[1]
  expression of proliferation marker Ki-67 compared to SDF-1α: increased more significantly
  expression of proliferation marker Ki-67 compared to the negative control: increased
Collagen IV
  expression of collagen IV compared to SDF-1α: increased more significantly
  expression of collagen IV compared to the negative control: increased
[2]
  length of re-epithelialization compared to the negative control: significantly greater length
  length of re-epithelialization relative to SDF-1α: at least a three times greater length

B1: thymus-expressed chemokine (protein, UniProt O15444 24-150, looked up)
C-C motif chemokine 25: QGVFEDCCLAYHYPIGWAVLRRAWTYRIQEVSGSCNLPAAIFYLPKRHRKVCGNPKSREVQRAMKLLDARNKVFAKLHHNTQTFQAGPHAVKKLSSGNSKLSSSKFSNPISSSKRNVSLLISANSGL
keratinocytes
  migration of keratinocytes compared to the negative control: increased
  number of migrated keratinocytes relative to SDF-1α: at least five times more
[1]
  expression of proliferation marker Ki-67 compared to SDF-1α: increased more significantly
  expression of proliferation marker Ki-67 compared to the negative control: increased
Collagen IV
  expression of collagen IV compared to SDF-1α: increased more significantly
  expression of collagen IV compared to the negative control: increased
[2]
  length of re-epithelialization compared to the negative control: significantly greater length
  length of re-epithelialization relative to SDF-1α: at least a three times greater length
